{
  "source": "paper PMC5869712",
  "about": "(Scientific Reports, 2018)",
  "key": {"JAK3": {"target": "T1, JAK3 (Homo sapiens, UniProt P52333)", "T1 construct": "ChemPartner (contract assay service)", "T1 sequence (P52333 1-1124)": "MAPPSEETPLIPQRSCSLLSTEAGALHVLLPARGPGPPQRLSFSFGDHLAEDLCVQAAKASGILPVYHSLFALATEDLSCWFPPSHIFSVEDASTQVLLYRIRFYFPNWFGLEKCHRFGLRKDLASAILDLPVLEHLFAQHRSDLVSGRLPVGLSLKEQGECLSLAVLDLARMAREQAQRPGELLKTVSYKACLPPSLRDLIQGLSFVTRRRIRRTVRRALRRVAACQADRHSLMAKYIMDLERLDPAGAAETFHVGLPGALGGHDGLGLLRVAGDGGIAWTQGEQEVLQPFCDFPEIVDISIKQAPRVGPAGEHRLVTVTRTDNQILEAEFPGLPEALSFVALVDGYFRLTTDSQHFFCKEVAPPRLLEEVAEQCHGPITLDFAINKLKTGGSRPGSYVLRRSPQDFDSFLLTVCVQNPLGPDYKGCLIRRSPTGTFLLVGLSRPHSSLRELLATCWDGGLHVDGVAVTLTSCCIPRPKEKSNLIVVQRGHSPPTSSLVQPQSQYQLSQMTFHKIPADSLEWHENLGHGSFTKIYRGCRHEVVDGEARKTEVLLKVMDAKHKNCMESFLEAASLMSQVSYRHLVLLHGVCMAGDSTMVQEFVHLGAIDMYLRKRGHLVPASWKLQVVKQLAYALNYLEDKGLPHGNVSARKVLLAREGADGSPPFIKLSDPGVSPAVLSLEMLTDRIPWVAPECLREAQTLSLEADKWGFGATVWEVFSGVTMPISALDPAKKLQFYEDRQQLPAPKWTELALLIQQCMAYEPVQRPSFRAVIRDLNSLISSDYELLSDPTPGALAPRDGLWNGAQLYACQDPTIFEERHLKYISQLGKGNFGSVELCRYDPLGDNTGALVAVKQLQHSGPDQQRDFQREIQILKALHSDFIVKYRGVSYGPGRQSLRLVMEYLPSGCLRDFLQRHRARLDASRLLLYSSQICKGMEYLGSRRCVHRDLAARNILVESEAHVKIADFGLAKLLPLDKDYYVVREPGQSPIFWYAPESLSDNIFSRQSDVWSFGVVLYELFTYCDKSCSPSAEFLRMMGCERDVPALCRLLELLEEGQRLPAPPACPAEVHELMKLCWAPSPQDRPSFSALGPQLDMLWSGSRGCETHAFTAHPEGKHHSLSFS", "test": "Reversibility assay (jump dilution)", "type": "biochemical", "conditions": "jump dilution experiment", "protocol": "This test trial of our compound RB1 was performed on a ChemPartner reversibility assay platform (ChemPartner; Shanghai; China). Jump dilution analysis is commonly used. The compound was tested in duplicate under 2 conditions, preincubation with enzyme and no preincubation. The assay protocol guide is commercially available from ChemPartner.\nSupplementary Figure S5. […] RB1 with […]\nwith kinase buffer that contains peptide substrate, ATP and cofactors at the final concentration for reaction, and read conversion data for 20 times for 1 h on caliper.\n(1 picture or pasted object on this page, not shown here)"}, "[1]": {"tested_on": "DBA/1 mice with collagen-induced arthritis", "test": "Collagen-induced arthritis mouse model: clinical score, histology, safety", "type": "in vivo", "conditions": "CIA mice; for group mean histological severity score: model group 3.8, grades 0-4", "protocol": "The animal protocol was approved by the Animal Care and Use Committee of Sichuan University in China (IACUC number: 20100318). DBA/1 J mice (male, 6 weeks old) were obtained from Jackson Laboratory (Bar Harbor, ME). One day before the start of the experiment, CII solution (2 mg/ml) was prepared with 0.05 M acetic acid and stored at 4 °C. Just before the immunization, equal volumes of IFA and CII were mixed by a homogenizer in a precooled glass bottle in an ice water bath. Arthritis was induced in 8-week old male DBA/1 mice by immunizations with a 1:1 emulsion of bovine type II collagen (Chondrex) and Freund’s complete adjuvant (Sigma-Aldrich) on day 0 and with a 1:1 emulsion of bovine type II collagen in Freund’s incomplete adjuvant (Sigma-Aldrich) on day 21. […] On the day treatment was initiated, the mice were randomly assigned to controls (no collagen injection plus vehicle; […]. Mice were scored daily for signs of arthritis for 33 days. CIA development was inspected three times per week, and the inflammation of the four paws was graded from 0 to 4 (grade 0, paws with no swelling or focal redness; grade 1, paws with swelling of finger joints; grade 2, paws with a mild swelling of the ankle or wrist joints; grade 3, paws with severe inflammation of the entire paw; and grade 4, paws with deformity or ankylosis). Each paw was graded, and the four scores were totalled so that the possible maximum score per mouse was 16.\nDBA1/J mice were sacrificed on day 33 after treatment and ankle joints were removed and fixed with 4% paraformaldehyde for more than 48 h. The joints were decalcified in EDTA buffer for 21 days and then embedded in paraffin blocks. Joint sections were stained with H&E or safranin O-fast green. Histological changes were examined under microscope using methods modified from McKew et al.[43] as follows: grade 0 = no abnormal findings; grade 1 = synoviocyte hypertrophy, slight synovial membrane fibrosis, slight-to-mild inflammatory cell infiltrates into the synovial membrane/articular capsule and/or joint space; grade 2 = grade 1 plus mild-to-moderate inflammatory cell infiltrates, pannus formation (if present) minimal with superficial cartilage erosion; grade 3 = grade 2 plus marked inflammatory cell infiltrates and fibrosis, mild-to-severe erosion of the cartilage extending into the subchondral bone; and grade 4 = loss of joint integrity through erosion or destruction with bone remodelling, massive inflammatory cell infiltrates, fibrosis, and ankylosis."}, "[2]": {"tested_on": "Th1, Th17 and Treg cells of CIA mice", "test": "Flow cytometry analysis of Th1, Th17 and Treg in CIA mice", "type": "in vivo, mouse", "conditions": "100 mg/kg", "protocol": "On day 32 after the indicated treatments, mice were sacrificed to obtain cells from the spleen. Then, the cells were incubated with the corresponding antibodies to detect Th1, Th17 cells and Treg cells. CD4^+ IFN-γ^+ represents Th1 cells, CD4^+ IL-17^+ represents Th17 cells in […]. CD4^+ Foxp3^+ represents Treg cells. The analyses of cells were performed as described above."}, "IGF-1R": {"target": "T2, IGF-1R (Homo sapiens, UniProt P08069)", "T2 construct": "purchased Eurofins KinaseProfiler (Eurofins Pharma Discovery Services UK, Dundee); JAK3 also ChemPartner", "T2 sequence (P08069 31-1367)": "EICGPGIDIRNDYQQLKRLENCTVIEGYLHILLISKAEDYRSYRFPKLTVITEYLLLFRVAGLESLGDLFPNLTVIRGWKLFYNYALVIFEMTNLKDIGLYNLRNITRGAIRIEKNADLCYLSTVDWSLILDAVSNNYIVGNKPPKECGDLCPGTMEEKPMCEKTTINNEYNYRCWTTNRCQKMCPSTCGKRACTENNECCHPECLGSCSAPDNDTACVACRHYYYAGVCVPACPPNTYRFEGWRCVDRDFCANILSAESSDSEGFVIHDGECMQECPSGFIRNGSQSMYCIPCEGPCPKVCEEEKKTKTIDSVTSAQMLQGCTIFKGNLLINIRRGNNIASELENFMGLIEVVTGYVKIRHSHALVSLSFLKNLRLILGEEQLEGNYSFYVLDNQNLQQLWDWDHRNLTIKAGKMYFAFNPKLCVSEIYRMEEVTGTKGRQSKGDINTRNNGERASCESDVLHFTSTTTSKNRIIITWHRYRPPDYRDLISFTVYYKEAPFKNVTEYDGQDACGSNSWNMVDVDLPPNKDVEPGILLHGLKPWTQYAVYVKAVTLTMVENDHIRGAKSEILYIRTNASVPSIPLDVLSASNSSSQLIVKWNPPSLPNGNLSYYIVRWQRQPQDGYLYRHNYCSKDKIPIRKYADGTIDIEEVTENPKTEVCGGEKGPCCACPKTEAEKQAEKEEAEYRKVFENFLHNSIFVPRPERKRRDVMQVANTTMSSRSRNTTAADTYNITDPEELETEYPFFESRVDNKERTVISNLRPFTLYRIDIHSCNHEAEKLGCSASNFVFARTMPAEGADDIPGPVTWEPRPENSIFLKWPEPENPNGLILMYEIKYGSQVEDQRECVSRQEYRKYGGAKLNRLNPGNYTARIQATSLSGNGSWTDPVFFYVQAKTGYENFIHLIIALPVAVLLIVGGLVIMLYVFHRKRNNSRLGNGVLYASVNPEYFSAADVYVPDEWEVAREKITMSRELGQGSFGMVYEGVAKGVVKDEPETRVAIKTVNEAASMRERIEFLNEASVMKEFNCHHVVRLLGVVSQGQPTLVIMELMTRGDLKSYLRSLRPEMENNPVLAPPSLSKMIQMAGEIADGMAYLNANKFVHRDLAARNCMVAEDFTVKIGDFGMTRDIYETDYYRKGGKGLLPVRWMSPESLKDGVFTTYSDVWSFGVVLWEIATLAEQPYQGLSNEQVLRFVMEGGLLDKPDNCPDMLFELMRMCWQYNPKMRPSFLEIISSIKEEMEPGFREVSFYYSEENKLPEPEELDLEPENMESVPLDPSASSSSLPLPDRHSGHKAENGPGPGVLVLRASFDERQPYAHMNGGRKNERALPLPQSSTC", "test": "Eurofins Kinase Profiler panel", "type": "biochemical", "conditions": "read-out: % inhibition (1μM), DMSO control=100%, lower=stronger"}},
  "data": [
    {"smiles": "C=CC(=O)N[C@@H]1CCCN(c2ncnc3[nH]ccc23)C1", "note": "[RB1]", "values": [
      {"measurement": "active JAK3 over time after preincubation", "setting": "JAK3", "value": "no active JAK3 was detected"},
      {"measurement": "H&E analysis of the major organs", "setting": "[1]", "value": "no significant side effects"},
      {"measurement": "body weight during treatment", "setting": "[1]", "value": "no fluctuations"},
      {"measurement": "group mean histological severity score", "setting": "[1]; 10 mg/kg", "value": 2.5},
      {"measurement": "group mean histological severity score", "setting": "[1]; 30 mg/kg", "value": 1.7},
      {"measurement": "group mean histological severity score", "setting": "[1]; 100 mg/kg", "value": 0.9},
      {"measurement": "arthritis (clinical) scores", "setting": "[1]; p < 0.05 at 10 mg/kg, p < 0.001 at 30 and 60 mg/kg (so in the source)", "value": "lower arthritis scores than untreated CIA mice"},
      {"measurement": "percentage of Treg cells", "setting": "[2]; model 0.55%", "value": 1.13, "unit": "%"},
      {"measurement": "Th1 cells", "setting": "[2]; model 1.12%, normal […]", "value": 0.49, "unit": "%"},
      {"measurement": "percentage of Th17 cells", "setting": "[2]; model 2.13%", "value": 0.80, "unit": "%"},
      {"measurement": "activity at 1 µM", "setting": "IGF-1R", "value": 93, "unit": "%"}
    ]}
  ]
}
